In this test the test system is amphetamine-induced symptoms. The test can be described thus: antagonism of amphetamine-induced symptoms in rats (block of d-amphetamine cage movement, rating scale). To be noted: Rattus norvegicus, ip, i.p. test compound, rated one hour after amphetamine. The format is in vivo. An excerpt:
The tranquilizing agents of the present invention are characterized by relief of such schizophrenic manifestations in humans as hallucinations, hostility, suspiciousness, emotional and social withdrawal, anxiety, agitation and tension. Standard procedures of detecting and comparing tranquilizing activity of compounds in this series and for which there is an excellent correlation with human efficacy is the antagonism of amphetamine-induced symptoms in rats test as taught by A. Weissman, et al., J. Pharmacol. Exp. Ther., 151, 339 (1966) and by Quinton, et al., Nature, 200, 178 (1963).
The effects of the compounds of the present invention on prominent amphetamine-induced symptoms were studied in rats by a rating scale modeled after the one reported by Quinton and Halliwell, and Weissman. Groups of five rats were placed in a covered plastic cage measuring approximately 26 cm. × 42 cm. × 16 cm. After a brief period of acclimation in the cage, the rats in each group were treated intraperitoneally (i.p.) with the test compound. […] On the basis of dose-response data after amphetamine it was possible to determine the effective dose of the compound necessary to antagonize or block the characteristic amphetamine behavior of cage movement for fifty percent of the rats tested (ED50). The time of rating chosen coincides with the peak action of amphetamine which is 60-80 min. after treatment with this agent.
Employing the above-described procedure, the following compounds were tested for their ability to block the behavior effects of amphetamine, the results being reported as the ED50 in mg./kg. at the indicated times: ##SPC25##

[1] abbreviates: d-amphetamine sulfate 5 mg./kg. i.p. 1 hr. later, read-out: ED50 (dose antagonizing/blocking characteristic amphetamine cage movement in fifty percent of rats), 1 hr.
Where [2] appears, read: d-amphetamine sulfate 5 mg./kg. i.p. 5 hrs. later, read-out: ED50 (dose antagonizing/blocking characteristic amphetamine cage movement in fifty percent of rats), 5 hrs.

ED50 data for 3 compounds are collected here from US3968231A, “4-Aryl-1,2,3,4-tetrahydropyrrolo(3,4-b)indoles for treating schizophrenic manifestations” (Bayer Aktiengesellschaft, priority 1975, dated 1976).

Read-outs that look alike come from different tables or passages of the source.

Regarding `Cl.OC(CCCN1Cc2c(n(-c3ccc(F)cc3)c3ccc(F)cc23)C1)c1ccc(F)cc1` (centres unmarked) [F F p-FC6 H4 CH(CH2)3 --, 7-Fluoro-4-(p-fluorophenyl)-2-[4-(p-fluorophenyl)-4-hydroxybutyl]-1,2,3,4-tetrahydropyrrolo[3,4-b]indole hydrochloride], the ED50 under setting [1] lay in the range of 1 to 3.2 mg/kg and the ED50 under setting [2] lay within 1 to 3.2 mg/kg.
In the case of `CN1Cc2c(n(-c3ccc(F)cc3)c3ccc(F)cc23)C1` [F F CH3, 7-Fluoro-4-(p-fluorophenyl)-2-methyl-1,2,3,4-tetrahydropyrrolo[3,4-b]indole], the ED50 runs as follows: under setting [1], 3.2 to 5.6 mg/kg; under setting [2], over 10 mg/kg.
Take `CN(C)CCCN1c2ccccc2Sc2ccc(Cl)cc21` [chlorpromazine, reference compound]: the ED50 under setting [1] was over 10 mg/kg.
